According to US8268827B2, “Pyridazinone derivatives as PARP inhibitors” (Istituto di Ricerche di Biologia Molecolare P. Angeletti …, priority 2007, dated 2012):

Test system: BRCA-1 silenced HeLa cells (HeLa shBRCA1-GFP)
Experiment: Proliferation assay in BRCA-1 silenced HeLa cells
Type: cell-based
Conditions: Homo sapiens; BRCA1 silenced HeLa cells, 168 hours; read-out: CC50 in the BRCA1 silenced HeLa cells
Procedure, shortened: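 HeLa cells with lentiviral shRNA BRCA1 knockdown (>80%), compared with control-vector HeLa, seeded at 300 cells/well. Compound exposure lasted 168 h at 37° C. Viability was read as resazurin-to-resorufin fluorescence (ex 550/em 590 nm).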

Row | SMILES | CC50 [nM]
1 | CCC1CN(C(=O)c2cc(Cc3n[nH]c(=O)c(C)c3C)ccc2F)CC(=O)N1C1CCC1 (stereo not drawn) [Example 164, 6-{3-[(4-Cyclobutyl-3-ethyl-5-oxopiperazin-1-yl)carbonyl]-4-fluorobenzyl}-4,5-dimethylpyridazin-3(2H)-one] | 50 to 500
2 | Cc1c(Cc2ccc(F)c(C(=O)N3CC(=O)N(c4cccc(Cl)c4)C(C)C3)c2)n[nH]c(=O)c1C (stereo not drawn) [Example 165, 6-(3-{[4-(3-Chlorophenyl)-3-methyl-5-oxopiperazin-1-yl]carbonyl}-4-fluorobenzyl)-4,5-dimethylpyridazin-3(2H)-one] | < 50
3 | Cc1c(Cc2ccc(F)c(C(=O)N3CC(=O)N(c4ccc(C#N)cc4)[C@@H](C)C3)c2)n[nH]c(=O)c1C [Example 166, 4-((2S)-4-{5-[(4,5-Dimethyl-6-oxo-1,6-dihydropyridazin-3-yl)methyl]-2-fluorobenzoyl}-2-methyl-6-oxopiperazin-1-yl)benzonitrile] | < 50
4 | CCC(CC)N1CCN(C(=O)c2cc(Cc3n[nH]c(=O)c(C)c3C)ccc2F)CC1=O [Example 167, 6-(3-{[4-(1-Ethylpropyl)-3-oxopiperazin-1-yl]carbonyl}-4-fluorobenzyl)-4,5-dimethylpyridazin-3(2H)-one] | < 50
5 | CC[C@@H](C)N1CCN(C(=O)c2cc(Cc3n[nH]c(=O)c(C)c3C)ccc2F)CC1=O [Example 168, 6-[4-Fluoro-3-({4-[(1R)-1-methylpropyl]-3-oxopiperazin-1-yl}carbonyl)benzyl]-4,5-dimethylpyridazin-3(2H)-one] | < 50
6 | COC[C@H](C)N1CCN(C(=O)c2cc(Cc3n[nH]c(=O)c(C)c3C)ccc2F)CC1=O [Example 169, 6-[4-Fluoro-3-({4-[(1S)-2-methoxy-1-methylethyl]-3-oxopiperazin-1-yl}carbonyl)benzyl]-4,5-dimethylpyridazin-3(2H)-one] | < 5000
7 | Cc1c(Cc2ccc(F)c(C(=O)N3CCN(CC(C)(C)O)C(=O)C3)c2)n[nH]c(=O)c1C [Example 173, 6-(4-Fluoro-3-{[4-(2-hydroxy-2-methylpropyl)-3-oxopiperazin-1-yl]carbonyl}benzyl)-4,5-dimethylpyridazin-3(2H)-one] | < 5000
8 | Cc1c(Cc2ccc(F)c(C(=O)N3CC(=O)N(c4ccc(C#N)c(F)c4)[C@@H](C)C3)c2)n[nH]c(=O)c1C [Example 174, 4-((2S)-4-{5-[(4,5-Dimethyl-6-oxo-1,6-dihydropyridazin-3-yl)methyl]-2-fluorobenzoyl}-2-methyl-6-oxopiperazin-1-yl)-2-fluorobenzonitrile] | < 50
9 | Cc1c(Cc2ccc(F)c(C(=O)N3CC(=O)N(C4CCC4)[C@H](C)C3)c2)n[nH]c(=O)c1C [Example 175, 6-(3-{[(3R)-4-Cyclobutyl-3-methyl-5-oxopiperazin-1-yl]carbonyl}-4-fluorobenzyl)-4,5-dimethylpyridazin-3(2H)-one] | < 50
10 | Cc1c(Cc2ccc(F)c(C(=O)N3CC(=O)N(c4cccc(Cl)c4)[C@@H](C)C3)c2)n[nH]c(=O)c1C [Example 177, 6-(3-{[(3S)-4-(3-Chlorophenyl)-3-methyl-5-oxopiperazin-1-yl]carbonyl}-4-fluorobenzyl)-4,5-dimethylpyridazin-3(2H)-one] | < 50
11 | Cc1c(Cc2ccc(F)c(C(=O)N3CC(=O)N(c4cccc(Cl)c4)[C@H](C)C3)c2)n[nH]c(=O)c1C [Example 178, 6-(3-{[(3R)-4-(3-Chlorophenyl)-3-methyl-5-oxopiperazin-1-yl]carbonyl}-4-fluorobenzyl)-4,5-dimethylpyridazin-3(2H)-one] | < 50
12 | COC[C@@H](C)N1CCN(C(=O)c2cc(Cc3n[nH]c(=O)c(C)c3C)ccc2F)CC1=O [Example 179, 6-[4-Fluoro-3-({4-[(1R)-2-methoxy-1-methylethyl]-3-oxopiperazin-1-yl}carbonyl)benzyl]-4,5-dimethylpyridazin-3(2H)-one] | < 5000
13 | CC[C@@H]1CN(C(=O)c2cc(Cc3n[nH]c(=O)c(C)c3C)ccc2F)CC(=O)N1C1CCC1 [Example 180, 6-(3-{[(3R)-4-Cyclobutyl-3-ethyl-5-oxopiperazin-1-yl]carbonyl}-4-fluorobenzyl)-4,5-dimethylpyridazin-3(2H)-one] | < 5000
14 | CCC1CN(C(=O)c2cc(Cc3n[nH]c(=O)c(C)c3C)ccc2F)CC(=O)N1C1CCCCC1 (stereo not drawn) [Example 184, 6-{3-[(4-Cyclohexyl-3-ethyl-5-oxopiperazin-1-yl)carbonyl]-4-fluorobenzyl}-4,5-dimethylpyridazin-3(2H)-one] | 50 to 500
15 | CCC1CN(C(=O)c2cc(Cc3n[nH]c(=O)c(C)c3C)ccc2F)CC(=O)N1C1CCCC1 (stereo not drawn) [Example 186, 6-{3-[(4-Cyclopentyl-3-ethyl-5-oxopiperazin-1-yl)carbonyl]-4-fluorobenzyl}-4,5-dimethylpyridazin-3(2H)-one] | < 5000
16 | Cc1c(Cc2ccc(F)c(C(=O)N3CC(=O)N(c4ccc(Cl)c(F)c4)[C@H](C)C3)c2)n[nH]c(=O)c1C [Example 187, 6-(3-{[(3R)-4-(4-Chloro-3-fluorophenyl)-3-methyl-5-oxopiperazin-1-yl]carbonyl}-4-fluorobenzyl)-4,5-dimethylpyridazin-3(2H)-one] | < 50
17 | Cc1c(Cc2ccc(F)c(C(=O)N3CC(=O)N(C4CC(F)(F)C4)C(C)C3)c2)n[nH]c(=O)c1C (stereo not drawn) [Example 188, 6-(3-{[4-(3,3-Difluorocyclobutyl)-3-methyl-5-oxopiperazin-1-yl]carbonyl}-4-fluorobenzyl)-4,5-dimethylpyridazin-3(2H)-one] | < 50
18 | Cc1c(Cc2ccc(F)c(C(=O)N3CC(=O)N(c4ccc(C#N)cc4)[C@H](C)C3)c2)n[nH]c(=O)c1C [Example 189, 4-((2R)-4-{5-[(4,5-Dimethyl-6-oxo-1,6-dihydropyridazin-3-yl)methyl]-2-fluorobenzoyl}-2-methyl-6-oxopiperazin-1-yl)benzonitrile] | < 50
19 | Cc1c(Cc2ccc(F)c(C(=O)N3CC(=O)N(c4ccc(C#N)c(F)c4)[C@H](C)C3)c2)n[nH]c(=O)c1C [Example 191, 4-((2R)-4-{5-[(4,5-Dimethyl-6-oxo-1,6-dihydropyridazin-3-yl)methyl]-2-fluorobenzoyl}-2-methyl-6-oxopiperazin-1-yl)-2-fluorobenzonitrile] | < 50
20 | Cc1c(Cc2ccc(F)c(C(=O)N3CCN([C@@H](C)C(F)(F)F)C(=O)C3)c2)n[nH]c(=O)c1C [Example 192, 6-[4-Fluoro-3-({3-oxo-4-[(1S)-2,2,2-trifluoro-1-methylethyl]piperazin-1-yl}carbonyl)benzyl]-4,5-dimethylpyridazin-3(2H)-one] | 50 to 500
21 | Cc1c(Cc2ccc(F)c(C(=O)N3CC(=O)N(c4cc(F)cc(F)c4)[C@H](C)C3)c2)n[nH]c(=O)c1C [Example 193, 6-(3-{[(3R)-4-(3,5-Difluorophenyl)-3-methyl-5-oxopiperazin-1-yl]carbonyl}-4-fluorobenzyl)-4,5-dimethylpyridazin-3(2H)-one] | < 50
22 | Cc1c(Cc2ccc(F)c(C(=O)N3CC(=O)N(c4ccc(Cl)cc4)[C@H](C)C3)c2)n[nH]c(=O)c1C [Example 194, 6-(3-{[(3R)-4-(4-Chlorophenyl)-3-methyl-5-oxopiperazin-1-yl]carbonyl}-4-fluorobenzyl)-4,5-dimethylpyridazin-3(2H)-one] | < 50
23 | Cc1c(Cc2ccc(F)c(C(=O)N3CC(=O)N(c4cccs4)[C@H](C)C3)c2)n[nH]c(=O)c1C [Example 195, 6-(4-Fluoro-3-{[(3R)-3-methyl-5-oxo-4-(2-thienyl)piperazin-1-yl]carbonyl}benzyl)-4,5-dimethylpyridazin-3(2H)-one] | < 50
24 | Cc1c(Cc2ccc(F)c(C(=O)N3CC(=O)N(c4ccc(Cl)cc4F)[C@H](C)C3)c2)n[nH]c(=O)c1C [Example 196, 6-(3-{[(3R)-4-(4-Chloro-2-fluorophenyl)-3-methyl-5-oxopiperazin-1-yl]carbonyl}-4-fluorobenzyl)-4,5-dimethylpyridazin-3(2H)-one] | < 50
25 | Cc1c(Cc2ccc(F)c(C(=O)N3CC(=O)N(c4ccc(F)c(C#N)c4)[C@H](C)C3)c2)n[nH]c(=O)c1C [Example 197, 5-((2R)-4-{5-[(4,5-Dimethyl-6-oxo-1,6-dihydropyridazin-3-yl)methyl]-2-fluorobenzoyl}-2-methyl-6-oxopiperazin-1-yl)-2-fluorobenzonitrile] | < 50
26 | Cc1c(Cc2ccc(F)c(C(=O)N3CC(=O)N(c4cc(F)cc(Cl)c4)[C@H](C)C3)c2)n[nH]c(=O)c1C [Example 198, 6-(3-{[(3R)-4-(3-Chloro-5-fluorophenyl)-3-methyl-5-oxopiperazin-1-yl]carbonyl}-4-fluorobenzyl)-4,5-dimethylpyridazin-3(2H)-one] | < 50
27 | Cc1c(Cc2ccc(F)c(C(=O)N3CC(=O)N(c4ccc(F)c(Cl)c4)[C@H](C)C3)c2)n[nH]c(=O)c1C [Example 199, 6-(3-{[(3R)-4-(3-Chloro-4-fluorophenyl)-3-methyl-5-oxopiperazin-1-yl]carbonyl}-4-fluorobenzyl)-4,5-dimethylpyridazin-3(2H)-one] | < 50
28 | Cc1c(Cc2ccc(F)c(C(=O)N3CCN([C@H](C)C(F)(F)F)C(=O)C3)c2)n[nH]c(=O)c1C [Example 200, 6-[4-Fluoro-3-({3-oxo-4-[(1R)-2,2,2-trifluoro-1-methylethyl]piperazin-1-yl}carbonyl)benzyl]-4,5-dimethylpyridazin-3(2H)-one] | < 50
29 | Cc1c(Cc2ccc(F)c(C(=O)N3CC(=O)N(c4ccc(C#N)cc4F)[C@H](C)C3)c2)n[nH]c(=O)c1C [Example 201, 4-((2R)-4-{5-[(4,5-Dimethyl-6-oxo-1,6-dihydropyridazin-3-yl)methyl]-2-fluorobenzoyl}-2-methyl-6-oxopiperazin-1-yl)-3-fluorobenzonitrile] | < 50
30 | Cc1c(Cc2ccc(F)c(C(=O)N3CC(=O)N(c4cc(F)cc(C#N)c4)[C@H](C)C3)c2)n[nH]c(=O)c1C [Example 202, 3-((2R)-4-{5-[(4,5-Dimethyl-6-oxo-1,6-dihydropyridazin-3-yl)methyl]-2-fluorobenzoyl}-2-methyl-6-oxopiperazin-1-yl)-5-fluorobenzonitrile] | < 50
